Assay results: patent publication US20190209501A1, “COMPOSITIONS AND METHODS OF USE OF BETA-HYDROXY-BETA-METHYLBUTYRATE (HMB) […] IN[…]” (Texas Tech University Office of Research Commercialization, priority 2018, published 2019)

Assay: Isometric squat rate of force development (RFD)
Assay type: in vivo, human
Set-up: RFD50 ms / RFD50 ms Δ / RFD100 ms / RFD100 ms Δ / RFD200 ms / RFD200 ms Δ / RFD30 ms / RFD30 ms Δ: unit not given here
Details: for RFD30 ms Δ / RFD30 ms Δ (%) / RFD50 ms Δ / RFD50 ms Δ (%) / RFD100 ms Δ / RFD100 ms Δ (%) / RFD200 ms Δ / RFD200 ms Δ (%): baseline to W 8; for RFD30 ms ES (d) / RFD50 ms ES (d) / RFD100 ms ES (d) / RFD200 ms ES (d): effect size
Experimental: Isometric and isokinetic squats were performed using a mechanized squat device (Exerbotics eSq, Tulsa, Okla., USA) (31, 32). At the first assessment, each participant's preferred foot positioning was determined using a custom grid overlaid on the foot platform of the squat device. This foot positioning was recorded and utilized for all visits. No weight belts, knee wraps, or other aids were utilized during testing. Prior to testing, the participant's range of motion for isokinetic testing was determined. The range of motion was set to 90° between the thigh and lower leg at the bottom of the repetition and approximately 170° at the top of the repetition, as determined by a goniometer. The isometric testing included maximal effort pushes at 120° and 150° knee angles. Each participant was instructed to push against the device as hard and fast as possible while attempting to complete a squat movement. Two isometric pushes were performed at each knee angle, and each effort lasted approximately 2 to 3 seconds. After the isometric testing, a 3-repetition maximum isokinetic force production test was completed. Prior to testing, participants observed the movement of the machine and received verbal instruction regarding proper performance of the assessment. Each of the repetitions during the maximal isokinetic force production test consisted of a 4-second eccentric phase, followed by an approximately half-second pause at the 90° knee position and a 4-second concentric phase. During testing, the force signal was sampled from the load cell at 1 kHz (MP100; Biopac Systems, Inc, Santa Barbara, Calif., USA), stored on a personal computer, and processed off-line using custom-written software (LabVIEW, Version 11.0; National Instruments, Austin, Tex., USA). The scaled force signal was low-pass filtered, with a 10-Hz cutoff (zero-phase lag, fourth-order Butterworth filter). All subsequent analyses were conducted on the scaled and filtered force signal. For the isometric force production tests, the rate of force development (RFD) over specific time intervals (i.e. 30, 50, 100 and 200 ms) was calculated by manually specifying the onset of force production within the custom LabVIEW program. For each repetition of the maximum isokinetic force production test, isokinetic peak forces (PF) were determined as the highest mean 25-ms epoch for both concentric and eccentric testing (i.e. PFCONC and PFECC).

Work on `CC(C)(O)CC(=O)O` [TRFHMB, β-hydroxy-β-methylbutyrate] yielded an RFD30 ms (ITT, knee angle 120°, Baseline) of 1638 ± 411, an RFD50 ms (ITT, knee angle 120°, Baseline) of 2017 ± 472 and an RFD100 ms (ITT, knee angle 120°, Baseline) of 2621 ± 719. It also gave an RFD200 ms (ITT, knee angle 120°, Baseline) of 3661 ± 503, an RFD30 ms (ITT, knee angle 120°, W 4) of 2131 ± 457 and an RFD50 ms (ITT, knee angle 120°, W 4) of 2760 ± 506. It also gave an RFD100 ms (ITT, knee angle 120°, W 4) of 3451 ± 759, an RFD200 ms (ITT, knee angle 120°, W 4) of 4121 ± 475 and an RFD30 ms (ITT, knee angle 120°, W 8) of 2606 ± 494. The RFD50 ms (ITT, knee angle 120°, W 8) was 3153 ± 510, the RFD100 ms (ITT, knee angle 120°, W 8) was 4205 ± 774 and the RFD200 ms (ITT, knee angle 120°, W 8) was 4332 ± 472. For the same compound, the “RFD30 ms Δ” value (ITT, knee angle 120°) was 969, the “RFD30 ms Δ (%)” value (ITT, knee angle 120°) was 59% and the “RFD50 ms Δ” value (ITT, knee angle 120°) was 1135. For the same compound, the “RFD50 ms Δ (%)” value (ITT, knee angle 120°) was 56%, the “RFD100 ms Δ” value (ITT, knee angle 120°) was 1585 and the “RFD100 ms Δ (%)” value (ITT, knee angle 120°) was 60%. For the same compound, the “RFD200 ms Δ” value (ITT, knee angle 120°) was 671, the “RFD200 ms Δ (%)” value (ITT, knee angle 120°) was 18% and the “RFD30 ms ES (d)” value (ITT, knee angle 120°) was 0.59. The “RFD50 ms ES (d)” value (ITT, knee angle 120°) was 0.64, the “RFD100 ms ES (d)” value (ITT, knee angle 120°) was 0.59 and the “RFD200 ms ES (d)” value (ITT, knee angle 120°) was 0.38. The RFD30 ms (ITT, knee angle 150°, Baseline) was 1922 ± 471, the RFD50 ms (ITT, knee angle 150°, Baseline) was 2203 ± 703 and the RFD100 ms (ITT, knee angle 150°, Baseline) was 2694 ± 825. For the same compound, the RFD200 ms (ITT, knee angle 150°, Baseline) was 3163 ± 491, the RFD30 ms (ITT, knee angle 150°, W 4) was 2612 ± 420 and the RFD50 ms (ITT, knee angle 150°, W 4) was 2989 ± 482. It also gave an RFD100 ms (ITT, knee angle 150°, W 4) of 3567 ± 750, an RFD200 ms (ITT, knee angle 150°, W 4) of 3511 ± 447 and an RFD30 ms (ITT, knee angle 150°, W 8) of 2851 ± 469. For the same compound, the RFD50 ms (ITT, knee angle 150°, W 8) was 3208 ± 468, the RFD100 ms (ITT, knee angle 150°, W 8) was 3944 ± 754 and the RFD200 ms (ITT, knee angle 150°, W 8) was 3876 ± 443. For the same compound, the “RFD30 ms Δ” value (ITT, knee angle 150°) was 929, the “RFD30 ms Δ (%)” value (ITT, knee angle 150°) was 48% and the “RFD50 ms Δ” value (ITT, knee angle 150°) was 1004. For the same compound, the “RFD50 ms Δ (%)” value (ITT, knee angle 150°) was 46%, the “RFD100 ms Δ” value (ITT, knee angle 150°) was 1251 and the “RFD100 ms Δ (%)” value (ITT, knee angle 150°) was 46%. The “RFD200 ms Δ” value (ITT, knee angle 150°) was 713, the “RFD200 ms Δ (%)” value (ITT, knee angle 150°) was 23% and the “RFD30 ms ES (d)” value (ITT, knee angle 150°) was 0.53. The “RFD50 ms ES (d)” value (ITT, knee angle 150°) was 0.45, the “RFD100 ms ES (d)” value (ITT, knee angle 150°) was 0.42 and the “RFD200 ms ES (d)” value (ITT, knee angle 150°) was 0.41. The RFD30 ms (PP, knee angle 120°, Baseline) was 1669 ± 662, the RFD50 ms (PP, knee angle 120°, Baseline) was 2016 ± 758 and the RFD100 ms (PP, knee angle 120°, Baseline) was 2642 ± 1153. For the same compound, the RFD200 ms (PP, knee angle 120°, Baseline) was 4079 ± 688, the RFD30 ms (PP, knee angle 120°, W 4) was 2267 ± 723 and the RFD50 ms (PP, knee angle 120°, W 4) was 3028 ± 787. It also gave an RFD100 ms (PP, knee angle 120°, W 4) of 3845 ± 1195, an RFD200 ms (PP, knee angle 120°, W 4) of 4636 ± 648 and an RFD30 ms (PP, knee angle 120°, W 8) of 2917 ± 675. The RFD50 ms (PP, knee angle 120°, W 8) was 3470 ± 675, the RFD100 ms (PP, knee angle 120°, W 8) was 4629 ± 1111 and the RFD200 ms (PP, knee angle 120°, W 8) was 4824 ± 569. For the same compound, the “RFD30 ms Δ” value (PP, knee angle 120°) was 1248, the “RFD30 ms Δ (%)” value (PP, knee angle 120°) was 75% and the “RFD50 ms Δ” value (PP, knee angle 120°) was 1454. For the same compound, the “RFD50 ms Δ (%)” value (PP, knee angle 120°) was 72%, the “RFD100 ms Δ” value (PP, knee angle 120°) was 1987 and the “RFD100 ms Δ (%)” value (PP, knee angle 120°) was 75%. The “RFD200 ms Δ” value (PP, knee angle 120°) was 745, the “RFD200 ms Δ (%)” value (PP, knee angle 120°) was 18% and the “RFD30 ms ES (d)” value (PP, knee angle 120°) was 0.71. The “RFD50 ms ES (d)” value (PP, knee angle 120°) was 0.77, the “RFD100 ms ES (d)” value (PP, knee angle 120°) was 0.66 and the “RFD200 ms ES (d)” value (PP, knee angle 120°) was 0.45. It also gave an RFD30 ms (PP, knee angle 150°, Baseline) of 2121 ± 770, an RFD50 ms (PP, knee angle 150°, Baseline) of 2420 ± 1187 and an RFD100 ms (PP, knee angle 150°, Baseline) of 3072 ± 1377. For the same compound, the RFD200 ms (PP, knee angle 150°, Baseline) was 3441 ± 708, the RFD30 ms (PP, knee angle 150°, W 4) was 2845 ± 625 and the RFD50 ms (PP, knee angle 150°, W 4) was 3274 ± 715. For the same compound, the RFD100 ms (PP, knee angle 150°, W 4) was 3940 ± 1178, the RFD200 ms (PP, knee angle 150°, W 4) was 3613 ± 634 and the RFD30 ms (PP, knee angle 150°, W 8) was 3177 ± 622. It also gave an RFD50 ms (PP, knee angle 150°, W 8) of 3572 ± 604, an RFD100 ms (PP, knee angle 150°, W 8) of 4346 ± 1070 and an RFD200 ms (PP, knee angle 150°, W 8) of 4237 ± 558. For the same compound, the “RFD30 ms Δ” value (PP, knee angle 150°) was 1056, the “RFD30 ms Δ (%)” value (PP, knee angle 150°) was 50% and the “RFD50 ms Δ” value (PP, knee angle 150°) was 1152. The “RFD50 ms Δ (%)” value (PP, knee angle 150°) was 48%, the “RFD100 ms Δ” value (PP, knee angle 150°) was 1274 and the “RFD100 ms Δ (%)” value (PP, knee angle 150°) was 41%. For the same compound, the “RFD200 ms Δ” value (PP, knee angle 150°) was 796, the “RFD200 ms Δ (%)” value (PP, knee angle 150°) was 23% and the “RFD30 ms ES (d)” value (PP, knee angle 150°) was 0.57. The “RFD50 ms ES (d)” value (PP, knee angle 150°) was 0.46, the “RFD100 ms ES (d)” value (PP, knee angle 150°) was 0.39 and the “RFD200 ms ES (d)” value (PP, knee angle 150°) was 0.47.
